Assay results: US6962911B2, “Pyrrolopyrimidinone derivatives, process of preparation and use” (SK Chemicals Co., Ltd., priority 2000, dated 2005)
Structures can show the parent of a compound that is named as a salt. Where two headings read alike, the source gives them in different places.

How the values were obtained:
cGMP PDE V = cGMP PDE V (Homo sapiens, UniProt O76074); test: cyclic nucleotide PDE V activity, PDE SPA assay kit, inhibition study; assay type: biochemical
Method: The cyclic nucleotide PDE V activity was determined using PDE SPA assay kit (Amersham Pharmacia biotech, UK). Each reaction mixture (100 μL total volume) consisted of the column elute containing PDE V (10 μL), [^3H]-cGMP (5 μCi/mL), bovine serum albumin (0.5 mg/mL), and MgCl2 (5 mM) in Tris-HCl buffer (15 mM, pH 7.5). The reactions were initiated by the addition of PDE V and the samples were incubated at 30° C. for 30 min, after which the reaction was stopped by the addition of 50 μL of SPA beads. The reaction tube was then settled for 20 min and was counted on the scintillation counter (Tri-carb 1500, Packard, USA). For the inhibition study of PDE V activity, the sildenafil and test compounds were dissolved in dimethyl sulfoxide (DMSO) and was diluted with distilled water. The final concentration of DMSO was less than 0.2% (v/v).
The following table illustrate the in vitro activities for a range of the compounds of the invention as inhibitors of cGMP PDE V.

[1] = in vitro inhibition of cGMP PDE V, [3H]-cGMP, 30° C., 30 min, read-out: IC50

melting point | IC50 (cGMP PDE V; [1]) [nM] | Compound | IC50 (cGMP PDE V) [nM]
188 °C (dec.) | 0.28 | CCCc1cn(C)c2c(=O)[nH]c(-c3cc(S(=O)(=O)N4CCN(Cc5nnn[nH]5)CC4)ccc3OCC)nc12 [Example 116] | –
– | 0.64 | CCCc1cn(C)c2c(=O)[nH]c(-c3cc(S(=O)(=O)N4CCN(CCCF)CC4)ccc3OCC)nc12 [Example 19, 5-(2-ethoxy-5-(4-(3-fluoropropyl)piperazinylsulfonyl)phenyl)-1-methyl-3-n-propyl-1,6-dihydro-7H-pyrrolo[4,3-d]pyrimidin-7-one sulfuric acid] | –
138.5 to 139.5 °C | 0.27 | CCCc1cn(C)c2c(=O)[nH]c(-c3cc(S(=O)(=O)N4CCC(CC(=O)O)CC4)ccc3OCC)nc12 [Example 106, 5-(2-ethoxy-5-(4-(hydroxycarbonylmethyl)piperidinylsulfonyl)phenyl)-1-methyl-3-n-propyl-1,6-dihydro-7H-pyrrolo[4,3-d]pyrimidin-7-one] | –
150 °C (dec.) | 0.7 | CCCOc1ccc(S(=O)(=O)N2CCN(Cc3nnn[nH]3)CC2)cc1-c1nc2c(CCC)cn(C)c2c(=O)[nH]1 [Example 117, 5-(2-n-propoxy-5-(4-(1H-tetrazol-5-ylmethyl)piperazinylsulfonyl)phenyl)-1-methyl-3-n-propyl-1,6-dihydro-7H-pyrrolo[4,3-d]pyrimidin-7-one] | –
155 to 155.5 °C | 0.71 | CCCOc1ccc(S(=O)(=O)N2CCC(C(=O)O)CC2)cc1-c1nc2c(CCC)cn(C)c2c(=O)[nH]1 [Example 105] | –
– | 0.49 | CCCc1cn(C)c2c(=O)[nH]c(-c3cc(S(=O)(=O)N4CCN(CCCCl)CC4)ccc3OCC)nc12 [Example 35, 5-(5-(4-(3-chloropropyl)piperazinylsulfonyl)-2-ethoxyphenyl)-1-methyl-3-n-propyl-1,6-dihydro-7H-pyrrolo[4,3-d]pyrimidin-7-one hydrochloride] | –

Compound | melting point | IC50 (cGMP PDE V; [1]) [nM] | IC50 (cGMP PDE V) [nM]
CCCc1cn(C)c2c(=O)[nH]c(-c3cc(S(=O)(=O)N4CCN(CCCl)CC4)ccc3OCC)nc12 [Example 33, 5-(5-(4-(2-chloroethyl)piperazinylsulfonyl)-2-ethoxyphenyl)-1-methyl-3-n-propyl-1,6-dihydro-7H-pyrrolo[4,3-d]pyrimidin-7-one] | 226 °C (dec.) | – | 2.06
